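Dose response: 5 concentrations. Exposure: 48 h. Format: 96-well plates. Endpoint: linear interpolation; highest concentration if not reached. GI50 = concentration required for 50% inhibition of growth.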 Active and inactive are the calls of the source. No stated cut-off is given here; in the data, active = GI50 up to about 1.1 µM and inactive = higher.
Tests used:
Test in all cases: DTP human tumour cell line panel, 48 h
[1] = system: RXF 393
[2] = system: HL-60
[3] = system: KM12
[4] = system: SW-620
[5] = system: OVCAR-4
[6] = system: SK-MEL-5
[7] = system: SF-268
[8] = system: ACHN
[9] = system: OVCAR-3
[10] = system: SNB-75
[11] = system: UO-31
[12] = system: MOLT-4
[13] = system: U-251
[14] = system: HT-29
[15] = system: HOP-92
[16] = system: TK-10
[17] = system: A498

Measured: GI50

C[P+](C)(C)C
inactive: [1] > 100 µM | [2] > 100 µM | [3] > 100 µM | [4] > 100 µM | [5] > 100 µM | [6] > 100 µM | [7] > 100 µM | [8] > 100 µM | [9] > 100 µM | [10] > 100 µM | [11] > 100 µM | [12] > 100 µM | [13] > 100 µM | [14] > 100 µM | [15] > 100 µM | [16] > 100 µM

C[P+]1(Cc2ccccc2)CCCC1
inactive: [1] > 100 µM | [17] > 100 µM | [2] > 100 µM | [3] > 100 µM | [4] > 100 µM | [6] > 100 µM | [8] > 100 µM | [9] > 100 µM | [10] > 100 µM | [11] > 100 µM | [12] > 100 µM | [13] > 100 µM | [14] > 100 µM | [16] > 100 µM

NC(=S)N/N=C(/CC(=O)c1ccc([N+](=O)[O-])cc1)C(=O)Nc1ncc([N+](=O)[O-])s1
inactive: [1] > 100 µM | [2] 45.2 µM | [3] > 100 µM | [4] > 100 µM | [5] > 100 µM | [6] > 100 µM | [7] > 100 µM | [8] > 100 µM | [9] > 100 µM | [10] > 100 µM | [11] > 100 µM | [12] 30.7 µM | [13] > 100 µM | [14] > 100 µM | [15] > 100 µM | [16] > 100 µM

N#Cc1ccc(C2OCC3CC=CCC3CO2)cc1 (configuration not stated)
inactive: [1] 54.3 µM | [2] 30.7 µM | [3] 61.4 µM | [4] > 100 µM | [5] > 100 µM | [6] 21.1 µM | [7] > 100 µM | [8] 93.5 µM | [9] 91 µM | [10] 64.9 µM | [11] > 100 µM | [12] 2.97 µM | [13] 76.7 µM | [14] 44.7 µM

C1CCN(c2nsc(N3CCCCC3)n2)CC1
inactive: [1] > 100 µM | [17] > 100 µM | [2] 92 µM | [3] > 100 µM | [4] > 100 µM | [5] > 100 µM | [6] > 100 µM | [7] > 100 µM | [8] > 100 µM | [10] > 100 µM | [11] > 100 µM | [12] > 100 µM | [13] > 100 µM | [14] > 100 µM | [15] 97.1 µM | [16] > 100 µM

O=C(O)c1cc(=O)c2c([nH]c3ccccc32)s1
inactive: [1] > 100 µM | [2] > 100 µM | [3] > 100 µM | [4] > 100 µM | [5] > 100 µM | [6] > 100 µM | [7] > 100 µM | [8] > 100 µM | [9] > 100 µM | [10] 56.8 µM | [11] > 100 µM | [12] > 100 µM | [15] > 100 µM | [16] > 100 µM

CCCCCCCCCCCCCC(=O)OCC1OC(=O)C(O)C1O (configuration not stated)
inactive: [17] > 100 µM | [2] > 100 µM | [3] > 100 µM | [4] > 100 µM | [5] > 100 µM | [6] > 100 µM | [7] > 100 µM | [8] > 100 µM | [9] > 100 µM | [10] > 100 µM | [11] > 100 µM | [12] > 100 µM | [13] > 100 µM | [14] > 100 µM | [15] > 100 µM | [16] > 100 µM

O=C1C=CC(=O)N1Nc1ccc([N+](=O)[O-])cc1[N+](=O)[O-]
inactive: [17] 62.1 µM | [2] 25.8 µM | [3] > 100 µM | [4] > 67.3 µM | [5] > 42.3 µM | [6] > 100 µM | [7] > 100 µM | [8] > 100 µM | [9] 98.4 µM | [10] > 100 µM | [11] > 100 µM | [12] 33.3 µM | [13] > 100 µM | [14] > 71.4 µM | [15] > 49.1 µM | [16] > 100 µM

CC(=O)C1C(=O)NC(=O)C1=O (configuration not stated)
inactive: [1] > 100 µM | [17] > 100 µM | [3] > 100 µM | [4] 29.2 µM | [5] > 100 µM | [6] > 100 µM | [7] > 100 µM | [8] > 100 µM | [9] > 100 µM | [10] > 100 µM | [11] > 100 µM | [13] > 100 µM | [14] > 100 µM | [15] > 100 µM | [16] > 100 µM

Reference: ChEMBL document CHEMBL1201862, “PubChem BioAssay data set” (2004)
